The source of these data is patent US4524068A, “Cyclodextrin inclusion complex of piperonyl butoxide” (priority 1982, dated 1985).

The test system of data set [1] is Drosophila melanogaster Meigen (vinegar midge). Description: 24 hours' mortality of tetrametrin on midges pre-fed with piperonyl butoxide or its complex (Example 8). It counts as in vivo. As to conditions: pre-fed with synergist. How it is done:
The emulsion and suspension also contain 5% of sucrose.
Next day the 24 hours' mortality is determined.

A short description of another data set: physchem. As to conditions: water.
The conditions of data set [2]: cited from earlier work.
Data set [3] deals with Sitophilus granarius. Description: 24 hours' mortality of tetrametrin and cinerin with synergist (Example 10). As to conditions: for mortality at 10 mg/disk: Sitophilus granarius, 24 h, read-out: 24 hours' mortality, Paralitical and killed insects. As to the method:
(§1) As insecticide tetrametrin and cinerin I are used. The insecticidal effect is tested on 2-4 weeks' old Sitophilus granarius (Corn-Weevil) imago.
(§2) Piperonyl butoxide and the complex of piperonyl butoxide and cyclodextrin are applied as described in Example 9. The ratio of pyrethroide and synergistic agent amounts to 1:4 in all cases. The efficiency of insecticidal effect is proportional to the value of the 24 hours' mortality (killing effect).

Data set [4] deals with Sitophilus granarius. Kind of data set: Knock-down effect of tetrametrin and cinerin I with synergist (Example 10). As to conditions: pyrethroide:synergistic agent 1:4. It counts as in vivo, Sitophilus granarius (Corn-Weevil). How it is done: as §1, §2

Values after ≈ are worked out from the molar mass of the structure shown.

The term solubility denotes how much of the substance goes into solution per volume. A high value points to much dissolved substance. The mortality is the percentage killed.

For `CCCCOCCOCCOCc1cc2c(cc1CCC)OCO2` [piperonyl butoxide, 5-{[2-(2-butoxy-ethoxy)-ethoxy]-methyl}-6-propyl-1,3-benzodioxole], the “Mortality (24 hours mortality; killing effect)” value in data set [1] (tetrametrin dose 0.078 mg/disk) worked out at 0%; in data set [1] (tetrametrin dose 0.156 mg/disk), 8%; in data set [1] (tetrametrin dose 0.313 mg/disk) it was 34%; in data set [1] (tetrametrin dose 0.625 mg/disk), 48%; in data set [1] (tetrametrin dose 1.250 mg/disk), 100%; in data set [1] (tetrametrin dose 5.000 mg/disk) it was 100%. The compound also returned a solubility at 1 h in the data set “physchem” of 66 µg/mL (≈ 195 µM). In addition, the “solubility in organic solvents” value in data set [2] (organic solvents) is “soluble in organic solvents”. In data set [2] (water), the solubility in water entry is recorded as “substantially insoluble in water”.

Regarding `C/C=C\CC1=C(C)[C@@H](OC(=O)[C@@H]2[C@@H](C=C(C)C)C2(C)C)CC1=O` [cinerin], the mortality at 10 mg/disk in the data set on Sitophilus granarius [3] was 31%. Also, in the data set with Sitophilus granarius [3] (pyrethroide dose 1.250 mg/disk, pyrethroid:synergist 1:4), the “24 hours' mortality; Paralitical and killed insects” value amounted to 0%. Also, the Knock-down effect in the data set on Sitophilus granarius [4] (90 minutes) is on record as 6; with Sitophilus granarius [4] (170 minutes) it was 9; with Sitophilus granarius [4] (210 minutes), 8; in the data set with Sitophilus granarius [4] (300 minutes), 2.

On to `CC(C)=CC1C(C(=O)OCN2C(=O)C3=C(CCCC3)C2=O)C1(C)C` (centres unmarked) [tetrametrin], for which, in the data set on Sitophilus granarius [3], the mortality at 10 mg/disk amounted to 41%. Besides, the Knock-down effect is on record as 0 in the data set with Sitophilus granarius [4] (90 minutes), 9 with Sitophilus granarius [4] (170 minutes), 9 in the data set with Sitophilus granarius [4] (210 minutes) and 6 in the data set with Sitophilus granarius [4] (300 minutes).
